The record followed here is patent US9562057B2, “(Thieno[2,3-b][1,5]benzoxazepin-4-yl)piperazin-1-yl compounds as dual activity H1 inverse agonists/5-HT2A antagonists” (Eli Lilly and Company, priority 2013, dated 2017).

Where a name gives a salt, the structure may show the parent alone. Bounds are passed on as bounds.

The target of one assay is 5-HT7 (Homo sapiens, UniProt P34969). The experiment in a line: 5-HT7 binding. The text has this: (§1) Further, the compounds of the invention may be tested in binding assays and functional activity assays by well known methods for other physiologically important receptors such as, but not limited to, the hERG channel, other serotonin receptors (specifically 5-HT1B and 5-HT1D receptors, lack of agonist activity at 5-HT2B receptors, 5-HT2C, 5-HT5, 5-HT6, and 5-HT7 receptors), dopaminergic receptors (specifically D1, D2, and D3), GABAA receptors, adrenergic receptors and monoamine transporters.

For another assay, the target named is Dopamine D3 (Homo sapiens, UniProt P35462). Description: Dopamine D3 binding.
Text: as §1

The target in assay [1] is T1, 5-HT2B (Homo sapiens, UniProt P41595). Description: 5-HT2B antagonist functional activity. Particulars: antagonist mode. The format is biochemical.
Text: as §1

The next assay addresses 5-HT1D (Homo sapiens, UniProt P28221). The experiment in a line: 5-HT1D binding.
Text: as §1

A further assay deals with Serotonin Transporter (Homo sapiens, UniProt P31645). The experiment in a line: Serotonin transporter binding.
Text: as §1

The next assay deals with Norepinephrine Transport (Homo sapiens, UniProt P23975). Description: Norepinephrine transporter binding.
Text: as §1

For assay [2], the target named is T1, 5-HT2B. The experiment in a line: 5-HT2B agonist functional activity. The format is biochemical. Particulars: agonist mode.
Text: as §1

The target of a further assay is T2, 5-HT2A Receptor (Rattus norvegicus, UniProt P14842).
T2 construct: samples of the frontal cortex and cerebellum are removed; from tissue; host or cells: rat brain (frontal cortex versus cerebellum), in vivo
Description: 5-HT2A receptor occupancy in vivo (MDL 100907 tracer). Particulars: male Sprague-Dawley rats, oral gavage, 1 hr. before tracer, absolute ED50. On the procedure: Briefly, male Sprague-Dawley rats (Harlan Sprague-Dawley, Indianapolis, Ind.) weighing approximately 230-280 grams are given ad lib access to food and water until the beginning of the 3-hr. experimental protocol. 1 mg/kg ketanserin (non-selective 5-HT2A antagonist) is used as a positive control to establish assay validity. Test compounds or control are administered by oral gavage in a vehicle comprised of 20% hydroxypropyl beta-cyclodextrin. MDL 100907 ((R)-(+)-α-(2,3-Dimethoxyphenyl)-1-[2-(4-fluorophenyl)ethyl]-4-piperidinemethanol), a selective 5-HT2A antagonist, is used as a tracer. […] It is at the time of tracer administration that RO is considered to be measured. […] The level of MDL 100907 tracer is measured in each cortical and cerebellar sample. RO is calculated using the well-established ratio method which employs a region of high receptor density representative of total binding (frontal cortex) normalized by an area without or with very low levels of receptor (cerebellum). […]
Cortex and cerebellar samples are weighed and placed in conical centrifuge tubes on ice. […] Standards are prepared by adding known quantities of analyte to brain tissue samples from non-treated rats and processing as described above. […]

T1 sequence (P41595 whole entry, species assumed): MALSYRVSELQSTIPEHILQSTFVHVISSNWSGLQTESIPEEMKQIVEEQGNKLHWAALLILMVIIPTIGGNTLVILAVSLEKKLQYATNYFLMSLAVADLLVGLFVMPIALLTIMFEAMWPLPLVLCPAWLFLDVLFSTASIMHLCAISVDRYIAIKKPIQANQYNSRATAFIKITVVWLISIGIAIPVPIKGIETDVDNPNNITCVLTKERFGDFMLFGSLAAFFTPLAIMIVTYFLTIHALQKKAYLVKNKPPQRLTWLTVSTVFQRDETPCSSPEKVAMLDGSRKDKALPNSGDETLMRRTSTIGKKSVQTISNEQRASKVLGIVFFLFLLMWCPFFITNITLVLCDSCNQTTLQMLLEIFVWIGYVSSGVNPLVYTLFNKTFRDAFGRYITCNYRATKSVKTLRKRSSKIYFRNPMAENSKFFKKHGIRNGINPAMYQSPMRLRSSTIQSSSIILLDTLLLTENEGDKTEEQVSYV
5-HT7, sequence (P34969 whole entry, species assumed): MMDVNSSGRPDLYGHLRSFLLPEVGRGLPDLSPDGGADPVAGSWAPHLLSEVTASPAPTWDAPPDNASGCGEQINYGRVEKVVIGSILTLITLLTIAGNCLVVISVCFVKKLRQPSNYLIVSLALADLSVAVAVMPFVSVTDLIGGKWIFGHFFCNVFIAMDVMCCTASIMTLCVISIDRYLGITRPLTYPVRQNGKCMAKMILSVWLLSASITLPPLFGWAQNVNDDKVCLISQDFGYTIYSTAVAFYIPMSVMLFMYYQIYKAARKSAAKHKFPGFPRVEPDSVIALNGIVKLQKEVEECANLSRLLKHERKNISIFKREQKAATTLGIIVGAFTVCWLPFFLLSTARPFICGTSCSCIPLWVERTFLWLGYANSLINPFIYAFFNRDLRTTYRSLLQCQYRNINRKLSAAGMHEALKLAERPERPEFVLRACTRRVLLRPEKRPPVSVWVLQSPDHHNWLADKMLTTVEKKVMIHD
T2 sequence (P14842 whole entry): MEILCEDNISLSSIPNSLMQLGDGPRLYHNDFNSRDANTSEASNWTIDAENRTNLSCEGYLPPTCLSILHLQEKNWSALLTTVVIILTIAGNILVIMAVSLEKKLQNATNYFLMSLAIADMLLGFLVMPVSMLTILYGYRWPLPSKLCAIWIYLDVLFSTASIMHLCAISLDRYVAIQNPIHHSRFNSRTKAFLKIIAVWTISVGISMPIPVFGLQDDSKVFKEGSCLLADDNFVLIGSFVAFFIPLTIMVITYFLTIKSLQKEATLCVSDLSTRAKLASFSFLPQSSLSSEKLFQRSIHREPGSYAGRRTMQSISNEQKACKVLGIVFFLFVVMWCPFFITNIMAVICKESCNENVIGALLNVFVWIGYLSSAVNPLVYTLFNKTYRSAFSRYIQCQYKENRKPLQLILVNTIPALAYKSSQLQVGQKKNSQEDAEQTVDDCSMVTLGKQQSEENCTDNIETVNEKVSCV
Norepinephrine Transport, sequence (P23975 whole entry): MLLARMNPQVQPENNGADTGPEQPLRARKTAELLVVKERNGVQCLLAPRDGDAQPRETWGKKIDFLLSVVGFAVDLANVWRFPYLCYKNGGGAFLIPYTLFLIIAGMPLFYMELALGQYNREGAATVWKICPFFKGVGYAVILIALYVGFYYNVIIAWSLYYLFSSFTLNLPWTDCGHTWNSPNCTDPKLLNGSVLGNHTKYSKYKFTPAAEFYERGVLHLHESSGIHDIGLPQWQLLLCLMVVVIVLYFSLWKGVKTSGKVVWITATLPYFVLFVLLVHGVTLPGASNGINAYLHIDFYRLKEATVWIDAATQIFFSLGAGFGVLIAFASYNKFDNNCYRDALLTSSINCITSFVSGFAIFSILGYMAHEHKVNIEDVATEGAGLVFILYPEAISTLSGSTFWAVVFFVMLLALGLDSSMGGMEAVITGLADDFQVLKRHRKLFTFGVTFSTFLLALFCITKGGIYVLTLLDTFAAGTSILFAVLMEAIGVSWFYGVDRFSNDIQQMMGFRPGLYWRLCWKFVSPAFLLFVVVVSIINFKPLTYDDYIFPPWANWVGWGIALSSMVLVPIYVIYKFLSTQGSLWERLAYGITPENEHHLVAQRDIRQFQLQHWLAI
Dopamine D3, sequence (P35462 whole entry): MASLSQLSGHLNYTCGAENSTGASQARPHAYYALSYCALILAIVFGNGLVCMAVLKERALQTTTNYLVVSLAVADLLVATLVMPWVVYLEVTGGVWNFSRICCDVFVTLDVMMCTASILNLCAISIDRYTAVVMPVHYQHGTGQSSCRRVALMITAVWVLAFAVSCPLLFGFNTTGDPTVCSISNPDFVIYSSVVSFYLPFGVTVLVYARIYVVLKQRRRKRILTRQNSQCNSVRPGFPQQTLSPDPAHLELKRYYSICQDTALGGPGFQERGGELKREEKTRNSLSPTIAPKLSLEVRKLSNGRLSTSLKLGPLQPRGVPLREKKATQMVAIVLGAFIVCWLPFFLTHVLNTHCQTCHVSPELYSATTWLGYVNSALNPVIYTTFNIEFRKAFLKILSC
Serotonin Transporter, sequence (P31645 whole entry): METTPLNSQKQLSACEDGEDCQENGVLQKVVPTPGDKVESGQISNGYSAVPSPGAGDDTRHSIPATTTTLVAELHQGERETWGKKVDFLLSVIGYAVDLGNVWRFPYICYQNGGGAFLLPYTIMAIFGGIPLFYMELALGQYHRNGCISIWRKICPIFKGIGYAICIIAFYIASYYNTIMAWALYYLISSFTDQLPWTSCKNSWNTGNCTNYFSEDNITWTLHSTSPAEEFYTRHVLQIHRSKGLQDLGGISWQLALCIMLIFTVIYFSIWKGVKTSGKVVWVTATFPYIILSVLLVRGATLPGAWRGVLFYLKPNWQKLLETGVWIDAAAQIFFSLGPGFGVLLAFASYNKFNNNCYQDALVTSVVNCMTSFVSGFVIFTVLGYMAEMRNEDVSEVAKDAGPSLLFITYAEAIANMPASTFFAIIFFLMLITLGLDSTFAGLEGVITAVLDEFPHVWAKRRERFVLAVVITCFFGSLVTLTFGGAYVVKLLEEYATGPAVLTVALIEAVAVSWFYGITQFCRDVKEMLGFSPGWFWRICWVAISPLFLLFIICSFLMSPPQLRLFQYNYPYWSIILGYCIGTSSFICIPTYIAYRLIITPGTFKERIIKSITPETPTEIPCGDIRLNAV
5-HT1D, sequence (P28221 whole entry, species assumed): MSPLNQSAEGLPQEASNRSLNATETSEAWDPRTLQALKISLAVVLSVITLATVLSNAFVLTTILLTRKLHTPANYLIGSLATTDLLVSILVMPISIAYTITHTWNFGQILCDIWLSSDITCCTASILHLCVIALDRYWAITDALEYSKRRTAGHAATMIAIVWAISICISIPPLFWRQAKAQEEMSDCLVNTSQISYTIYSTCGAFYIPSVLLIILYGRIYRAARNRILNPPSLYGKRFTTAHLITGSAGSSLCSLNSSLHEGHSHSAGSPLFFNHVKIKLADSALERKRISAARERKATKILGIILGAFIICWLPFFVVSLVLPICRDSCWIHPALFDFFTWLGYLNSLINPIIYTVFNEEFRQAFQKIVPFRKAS

Usually Ki stands for the dissociation constant of the complex between target and ligand, obtained from inhibition or displacement. A lower Ki goes with a stronger hold on the target. Usually Kb stands for the equilibrium dissociation constant of an antagonist, usually derived from a functional assay. Lower therefore signals a more potent antagonist. One may read the EC50 as the concentration giving half of the maximal effect. A high value points to a less potent agent. The ED50 is the dose that gives a 50% effect, or the effect in half of the subjects. Read a high ED50 as a need for a large dose. As to `Cc1ccc2c(c1)Oc1sc(C3CC3)cc1C(N1CCN(CC(C)(C)C(=O)O)CC1)=N2` [Example 2, 3-[4-(2-Cyclopropyl-8-methyl-thieno[2,3-b][1,5]benzoxazepin-4-yl)piperazin-1-yl]-2,2-dimethyl-propanoic acid dihydrochloride], the Ki at 5-HT7 is more than 2.06 µM; on Dopamine D3, more than 6.28 µM; on 5-HT1D, more than 3.98 µM; at Serotonin Transporter, more than 0.478 µM; at Norepinephrine Transport, more than 0.671 µM. Also, on 5-HT2B [1], the Kb is 0.0934 µM. Moreover, the EC50 on 5-HT2B [2] is more than 10 µM. Further, the 50% effect level at 5-HT2A Receptor (ED50) was put at a dose of 0.41 mg/kg.
